Measurements as given in patent US20260216109A1, “TREATMENT OF SKIN DISORDERS WITH SHORT CHAIN FATTY ACIDS” (Temple University-Of The Commonwealth System of Higher …, priority 2023, published 2026).

What was measured:
Assay type in all cases: in vivo, mouse
[1] = system: imiquimod (IMQ)-induced psoriasis model mice; experiment: Disease severity score, imiquimod (IMQ)-induced psoriasis model in mice; conditions: for disease severity score (psoriasis severity score): Example 12
Experimental: (§1) Topical application of IMQ, a TLR7/8 ligand and potent immune activator induced and exacerbated psoriasis in mice. The mouse IMQ-induced psoriasis (IMQ Ps) model was initiated by a repeated topical application of Aldara© cream (containing 5% IMQ) over 6 consecutive days. Female Balb/c mice (9 weeks of age at reception, ordered with 20 g, Charles River, Sulzfeld, Germany; n=10 mice/group, exception healthy controls n=4) received daily a topical application of 62.5 mg of commercially available IMQ cream (5% Aldara©) on the beforehand (day −1) shaved (~2 cm×3 cm), depilated (Pilka© cream) back skin, and 7 mg on the outer right ear skin for 6 consecutive days, translating in a daily dose of approximately 3.5 mg IMQ. Healthy control mice were included in the study and were treated with vehicle cream (Vaseline; Bombastus-Werke AG) only instead of IMQ. Additionally, an IMQ disease control group was also included.
Before starting treatment on the day of disease induction (day 0), mice were randomized based on body weight to the respective group. To evaluate the anti-inflammatory efficacy of the two test compounds in mouse IMQ psoriasis, mice were treated twice daily ([…] in sterile water; m/m/v) or with fixed dose of SCFA (in ddH2O) starting on day 0.
Disease Severity Score was evaluated on a daily base starting with the induction of psoriasis by IMQ application (day 0) until the end (day 6) of the study. The psoriasis severity on the back skin of the mice was evaluated by using a modified scoring system developed by van der Fits et al., based on the clinical PASI (psoriasis area and severity index) and takes skin erythema, scaling and skin thickening into account. Scoring was performed by the same lab technician throughout the experiment. Each parameter was scored independently on a scale from 0 to 3.
(§2) The added-up score (erythema plus scaling plus thickening), named disease severity score (scale 0-9), served then as marker for the severity of back skin inflammation. In addition, ear thickness of the right ear was determined daily by using an automatized caliper (Bayer AG, Germany).
The statistical analysis of the data was conducted by using the GraphPad PRISM software. Here, a one-way analysis of variance (ANOVA) and a pair-wise comparison to the IMQ disease control group (using the Dunnett's test) as a multiple comparison procedure was performed. Statistical significance was delineated by p value (*, p<0.05; **, p<0.01; ***, p<0.005; **** p<0.001).

[2] = system: imiquimod (IMQ)-induced psoriasis model mice; experiment: Ear skin thickness, IMQ-induced psoriasis model in mice
Experimental: as §1
Before starting treatment on the day of disease induction (day 0), mice were randomized based on body weight to the respective group. […]
as §2
Disease Severity Score was evaluated on a daily base starting with the induction of psoriasis by IMQ application (day 0) until the end (day 6) of the study. The extent of ear thickness of the IMQ-treated right ear was determined daily by using an automatized caliper (Bayer AG, Germany) as described in Example 4.
Ear thickening, one of the disease severity score parameters, was evaluated in IMQ-treated mice (FIG. 60 and FIG. 61). The extent of ear thickness of the IMQ-treated right ear was determined daily by using an automatized caliper (Bayer AG, Germany) as described in Example 4.

[3] = Observations of animal well-being in IMQ-induced psoriasis model mice

Question: For `CCOc1cc([C@@H](CS(C)(=O)=O)N2C(=O)c3cccc(NC(C)=O)c3C2=O)ccc1OC` [Otezla, Apremilast], which “disease severity score (psoriasis severity), back skin” value ([1]; Example 4, oral gavage BID from day 0 to day 6, Apremilast 25 mg/kg BID (50 mg/kg/day), SCFA fixed dose (120 mg/kg/day Ca-propionate + 2,146 mg/kg/day Ca-/Mg-butyrate), vs IMQ control) is on record?
Answer: The value was “significantly inhibited the psoriasis severity in IMQ-treated mice throughout the duration of the experiment”.

Question: What about the “disease severity score (psoriasis severity)” value ([1]; Example 5, Apremilast 10 mg/kg/day and 14 mg/kg/day (5 and 7 mg/kg BID), oral) of the same molecule?
Answer: Its value is “inhibited the psoriasis severity in IMQ-treated mice within the first four days of the study, but anti-inflammatory effects were not maintained until the end of the study at day 6”.

Question: What about the “disease severity score (psoriasis severity score)” value ([1]; Apremilast 12 mg/kg BID oral, monotherapy) of the same molecule?
Answer: The value was “did not reach significance at day 4 and day 5”.

Question: What about the “disease severity score (psoriasis severity score)” value ([1]; Apremilast 25 mg/kg BID oral alone, or combined with fixed dose SCFA (60 mg/kg/day Ca-propionate + 1,100 mg/kg/day Ca-/Mg-butyrate)) of the same molecule?
Answer: The value was “reduced the psoriasis severity score in IMQ-treated mice at day 4 of the study (p<0.05), and these effects were maintained at the end of the study at day 6”.

Question: What about the ear thickness ([2]; Example 7, Apremilast low dose (2.5 mg/kg BID), oral, alone) of the same molecule?
Answer: The ear thickness was “did not show any inhibitory influence on ear thickness”.

Question: What about the ear thickness ([2]; Example 7, Apremilast mid and high dose (5 and 7 mg/kg BID), oral, alone) of the same molecule?
Answer: Its ear thickness is “inhibited”.

Question: And the ear thickness ([2]; Example 12, day 6, Apremilast monotherapy, both doses (12 mg/kg and 25 mg/kg BID))?
Answer: The ear thickness was “did not show any inhibitory influence on ear thickness at day 6”.

Question: And the “observations of animal well-being” value ([3]; Example 4, SCFA fixed dose BID (120 + 2,146 mg/kg/day), Apremilast 50 mg/kg/day, oral, study duration)?
Answer: Its value is “reduced activity, ruffled coat and were slightly hunched”.

Question: What about the “observations of animal well-being” value ([3]; Example 7, SCFA (120 + 1,100 mg/kg/day), Apremilast 2.5, 5, 7 mg/kg BID, or combinations, study duration) of the same molecule?
Answer: The value was “well tolerated”.

Question: What about the “observations of animal well-being” value ([3]; Example 8 (written in present tense), SCFA, Apremilast 2.5, 5, 7 mg/kg BID, or combinations) of the same molecule?
Answer: The value was “well tolerated”.

Question: And the “observations of animal well-being” value ([3]; Example 9, SCFA fixed dose, Apremilast 25 mg/kg BID, or combination, study duration)?
Answer: Its value is “well tolerated”.

Question: And the “observations of animal well-being” value ([3]; Example 10 (written in present tense), SCFA, Apremilast 25 mg/kg BID, or combination)?
Answer: Its value is “well tolerated”.

Question: And the “observations of animal well-being” value ([3]; Example 12, SCFA fixed dose, Apremilast 12 or 25 mg/kg BID, or combinations, study duration)?
Answer: The value was “well tolerated”.
